ChEMBL document CHEMBL4270519, “Synthesis and biological evaluation of β2-adrenoceptor agonists bearing the 2-amino-2-phenylethanol scaffold” (Eur J Med Chem, 2018)

Tests used:
Homo sapiens = species: Homo sapiens; test: Selectivity ratio of pEC50 for human beta2 adrenergic receptor expressed in HEK293 cells to pEC50 for human beta1 adrenergic receptor expressed in HEK293 cells; type: cell-based
[1] = target: T1, Beta-2 adrenergic receptor (Homo sapiens, UniProt P07550); test: Intrinsic activity at human beta2 adrenergic receptor in HEK293 cells assessed as increase in cAMP accumulation after 60 mins by HTRF assay relative to isoprenaline; type: functional, cell-based
Target sequence in this assay (P07550 whole entry, looked up): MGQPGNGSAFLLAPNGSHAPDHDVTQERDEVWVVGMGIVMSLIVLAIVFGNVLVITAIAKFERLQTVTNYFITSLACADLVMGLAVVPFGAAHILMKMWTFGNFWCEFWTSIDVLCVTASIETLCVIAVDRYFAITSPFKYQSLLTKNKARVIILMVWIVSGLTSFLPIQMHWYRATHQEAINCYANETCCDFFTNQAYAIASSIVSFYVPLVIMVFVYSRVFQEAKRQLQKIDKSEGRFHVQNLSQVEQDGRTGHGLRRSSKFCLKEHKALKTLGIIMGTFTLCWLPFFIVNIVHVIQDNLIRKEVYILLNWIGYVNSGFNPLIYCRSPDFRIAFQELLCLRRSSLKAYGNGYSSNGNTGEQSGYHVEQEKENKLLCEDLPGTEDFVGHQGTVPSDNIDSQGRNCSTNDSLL

[2] = target: T1, Beta-2 adrenergic receptor; test: Agonist activity at human beta2 adrenergic receptor expressed in HEK293 cells assessed as increase in cAMP accumulation after 60 mins by HTRF assay; type: functional, cell-based
Target sequence in this assay (P07550 whole entry): as the sequence (P07550 whole entry, looked up) above

[3] = target: Beta-1 adrenergic receptor (Homo sapiens, UniProt P08588); test: Agonist activity at human beta1 adrenergic receptor expressed in HEK293 cells assessed as increase in cAMP accumulation after 60 mins by HTRF assay; type: functional, cell-based
Smooth muscle of trachea [4] = test: Reduction in histamine-induced muscle contractions in Dunkin-Hartley guinea pig tracheal smooth muscle ring by measuring muscle tone relative to control; type: functional; details: Cavia porcellus
Smooth muscle of trachea [5] = test: Intrinsic activity at Dunkin-Hartley guinea pig tracheal smooth muscle ring assessed as reduction in histamine-induced muscle contractions by measuring muscle tone relative to isoprenaline; type: functional, Cavia porcellus
[6] = target: Beta-3 adrenergic receptor (Homo sapiens, UniProt P13945); test: Agonist activity at human beta3 adrenergic receptor expressed in HEK293 cells assessed as increase in cAMP accumulation after 60 mins by HTRF assay; type: functional, cell-based
Smooth muscle of trachea [7] = test: Reduction in histamine-induced muscle contractions in Dunkin-Hartley guinea pig tracheal smooth muscle ring by measuring muscle tone; type: functional, Cavia porcellus
[8] = Intrinsic clearance in human liver microsomes at 10 uM after 10 mins in presence of NADPH by LC/MS/MS analysis; type: ADME, microsome; details: read-out: CLH
[9] = Half life in human liver microsomes at 10 uM by LC/MS/MS analysis; type: ADME, microsome
[10] = Apparent permeability from apical to basolateral side in human Caco2 cells at 2 uM after 2 hrs by LC/MS/MS analysis; type: ADME, cell-based; details: Caco-2
[11] = Apparent permeability from basolateral to apical side in human Caco2 cells at 2 uM after 2 hrs by LC/MS/MS analysis; type: ADME, cell-based; details: Caco-2

Beta-1 adrenergic receptor, sequence (P08588 whole entry): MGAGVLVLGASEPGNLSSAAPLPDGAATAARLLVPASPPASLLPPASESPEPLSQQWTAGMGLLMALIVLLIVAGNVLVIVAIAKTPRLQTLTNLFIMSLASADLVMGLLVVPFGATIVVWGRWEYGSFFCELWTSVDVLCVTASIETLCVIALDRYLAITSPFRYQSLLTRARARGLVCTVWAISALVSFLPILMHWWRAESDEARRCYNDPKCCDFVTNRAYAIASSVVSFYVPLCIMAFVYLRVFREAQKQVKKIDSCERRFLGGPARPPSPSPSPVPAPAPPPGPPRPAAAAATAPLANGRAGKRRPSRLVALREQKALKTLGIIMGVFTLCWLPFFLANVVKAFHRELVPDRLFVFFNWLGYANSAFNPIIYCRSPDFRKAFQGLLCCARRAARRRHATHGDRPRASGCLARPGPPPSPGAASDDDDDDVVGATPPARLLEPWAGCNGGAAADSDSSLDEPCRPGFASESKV
Beta-3 adrenergic receptor, sequence (P13945 whole entry): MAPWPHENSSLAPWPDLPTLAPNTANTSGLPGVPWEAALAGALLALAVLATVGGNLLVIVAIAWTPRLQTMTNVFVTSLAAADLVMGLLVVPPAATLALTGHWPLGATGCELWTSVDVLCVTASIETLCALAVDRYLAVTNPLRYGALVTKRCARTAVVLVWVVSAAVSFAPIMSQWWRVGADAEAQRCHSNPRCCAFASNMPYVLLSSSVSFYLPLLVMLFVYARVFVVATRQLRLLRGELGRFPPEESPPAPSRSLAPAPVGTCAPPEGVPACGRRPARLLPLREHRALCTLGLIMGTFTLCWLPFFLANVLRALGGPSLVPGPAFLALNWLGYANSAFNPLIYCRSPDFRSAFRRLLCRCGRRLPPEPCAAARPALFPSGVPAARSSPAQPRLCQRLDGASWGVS

Structure (SMILES)	Ratio (Homo sapiens)	EC50 ([2]; read-out: pEC50 (converted)) [nM]	EC50 [3] [nM]	also measured
COc1cccc(CCNC(CO)c2ccc(O)c3[nH]c(=O)ccc23)c1 (stereo not drawn)	2.62	2	631	Intrinsic activity [1]: 52.5%
O=c1ccc2c(C(CO)NCCc3ccccc3Cl)ccc(O)c2[nH]1 (stereo not drawn)	> 3.66	2	> 10000	
CC(C)(Cc1ccccc1)NC(CO)c1ccc(O)c2[nH]c(=O)ccc12 (stereo not drawn)	> 2.28	50.1	> 10000	
O=c1ccc2c(C(CO)NCCc3ccccc3O)ccc(O)c2[nH]1 (stereo not drawn)	> 3.03	10	> 10000	Intrinsic activity [1]: 54.2%
COc1ccccc1CCNC(CO)c1ccc(O)c2[nH]c(=O)ccc12 (stereo not drawn)	> 3.3	5.01	> 10000	Emax (Smooth muscle of trachea [4]): 111%; Intrinsic activity [1]: 48.6%; Intrinsic activity (Smooth muscle of trachea [5]): 44%; EC50 [6]: > 10000 nM; pD2 (Smooth muscle of trachea [7]): 6.03
O=c1ccc2c(C(CO)NCCc3ccc(Cl)cc3)ccc(O)c2[nH]1 (stereo not drawn)	1.6	39.8	1580	
CCCCC(=O)Nc1ccc(CCNC(CO)c2ccc(O)c3[nH]c(=O)ccc23)cc1 (stereo not drawn)		316		
COc1ccc(CCNC(CO)c2ccc(O)c3[nH]c(=O)ccc23)cc1 (stereo not drawn)	> 2.71	20	> 10000	
O=c1ccc2c(C(CO)NCCc3ccc(O)cc3)ccc(O)c2[nH]1 (stereo not drawn)	> 3.5	3.16	> 10000	Emax (Smooth muscle of trachea [4]): 250%; Intrinsic activity [1]: 46.3%; Intrinsic activity (Smooth muscle of trachea [5]): 98%; EC50 [6]: > 10000 nM; pD2 (Smooth muscle of trachea [7]): 7.98
O=c1ccc2c(C(CO)NCCc3ccccc3)ccc(O)c2[nH]1 (stereo not drawn)	2.72	1.58	832	Emax (Smooth muscle of trachea [4]): 255%; Intrinsic activity [1]: 57.4%; Intrinsic activity (Smooth muscle of trachea [5]): 100%; EC50 [6]: > 10000 nM; pD2 (Smooth muscle of trachea [7]): 7.81
CC(C)C(=O)Nc1ccc(CCNC(CO)c2ccc(O)c3[nH]c(=O)ccc23)cc1 (stereo not drawn)		50.1		
O=c1ccc2c(C(CO)NCCCCc3ccccc3)ccc(O)c2[nH]1 (stereo not drawn)	> 2.86	12.6	> 10000	
O=C(Nc1ccc(CCNC(CO)c2ccc(O)c3[nH]c(=O)ccc23)cc1)c1ccccc1 (stereo not drawn)		50.1		
CC(C)NCC(O)c1ccc(O)c(O)c1 (stereo not drawn) [ISOPROTERENOL]				CLint scaled at 10 µM [8]: 112 mL/min/kg; half-life at 10 µM [9]: 0.205 h; Emax (Smooth muscle of trachea [4]): 254%
O=c1ccc2c(C(CO)NCCc3c[nH]c4ccccc34)ccc(O)c2[nH]1 (stereo not drawn)		316		
O=c1ccc2c(C(CO)NCCCCOCCCCc3ccccc3)ccc(O)c2[nH]1 (stereo not drawn)		251		
O=c1ccc2c([C@@H](CO)NCCc3ccc(O)cc3)ccc(O)c2[nH]1				CLint scaled at 10 µM [8]: 11.5 mL/min/kg; half-life at 10 µM [9]: 1.81 h; Papp A→B at 2 h, 2 µM [10]: 0.43 ×10⁻⁶ cm/s; EC50 ([2]; read-out: EC50): 1.26 nM; Papp B→A at 2 h, 2 µM [11]: 0.74 ×10⁻⁶ cm/s
O=c1ccc2c(C(CO)NCCc3cccc(Cl)c3)ccc(O)c2[nH]1 (stereo not drawn)	3.05	2.51	3160	
O=c1ccc2c(C(CO)NCCCCCCOCCCCc3ccccc3)ccc(O)c2[nH]1 (stereo not drawn)	> 3.31	5.01	> 10000	
O=c1ccc2c([C@H](CO)NCCc3ccc(O)cc3)ccc(O)c2[nH]1				EC50 ([2]; read-out: EC50): 328 nM
O=c1ccc2c(C(CO)NCCc3cccc(O)c3)ccc(O)c2[nH]1 (stereo not drawn)		794		
CCc1cc2c(cc1CC)CC(NC(CO)c1ccc(O)c3[nH]c(=O)ccc13)C2 (stereo not drawn)		316		
O=C(Cc1ccccc1)Nc1ccc(CCNC(CO)c2ccc(O)c3[nH]c(=O)ccc23)cc1 (stereo not drawn)		3.98		
O=c1ccc2c(C(CO)NCC(c3ccccc3)c3ccccc3)ccc(O)c2[nH]1 (stereo not drawn)		631		
Nc1ccc(CCNC(CO)c2ccc(O)c3[nH]c(=O)ccc23)cc1 (stereo not drawn)		79.4		
O=c1ccc2c(C(CO)NCCCc3ccccc3)ccc(O)c2[nH]1 (stereo not drawn)	1.89	10	832	Intrinsic activity [1]: 55.8%; EC50 [6]: > 10000 nM
CC(C)CC(=O)Nc1ccc(CCNC(CO)c2ccc(O)c3[nH]c(=O)ccc23)cc1 (stereo not drawn)		631		
